The record followed here is patent US10709788B2, “Chitosan magnetic particle drug carrier, drug structure, and method of making” (GENE'E TECH CO., LTD., priority 2018, dated 2020).

The test system of experiment [1] is H. pylori. Put plainly: Test of inhibition of H. pylori by drug structure (OD 450 nm, bacterial inhibition rate). Particulars: seven strains; added at minimum inhibitory concentration; 37° C., anaerobic, 48 hours. The experiment is classed as cell-based. Here is the method:
First, bacterial fluids of seven different strains of H. pylori are provided. […] The bacterial fluids of the seven different strains of H. pylori are placed in four 15 ml microcentrifuge tubes, respectively. Each microcentrifuge tube contains 5 ml of H. pylori bacterial fluid. The four microcentrifuge tubes are defined as experimental group 1, experimental group 2, experimental group 3 and control group, respectively. Then, amoxicillin of the minimum inhibitory concentration is added to experimental group 1 of each strain of H. pylori, sample 3 (i.e., drug carrier) of the minimum inhibitory concentration is added to experimental group 2 of each strain of H. pylori, sample C (i.e., drug structure) of amoxicillin of the minimum inhibitory concentration is added to experimental group 3 of each strain of H. pylori, and nothing is added to the control group. Afterward, experimental groups 1-3 and control group of each strain of H. pylori are placed in an incubator to be cultured therein at 37° C., in an anaerobic environment, and for 48 hours. At the end of the 48-hour culturing process, bacterial fluids are extracted from the experimental groups 1-3 and control group of the strains of H. pylori, respectively. OD values of the bacterial fluid of the experimental groups and the bacterial fluid of the control group are measured with a spectrophotometer at a wavelength of 450 nm. […]

Experiment [2] concerns H. pylori. Put plainly: minimum inhibitory concentrations (MIC) for seven strains of H. pylori. The format is cell-based. The settings on record: Helicobacter pylori, read-out: minimum inhibitory concentration (MIC).

Converted amounts (≈) assume the structure as drawn. Like-named read-outs stand apart in the source and are kept apart here.

`CC1(C)S[C@@H]2[C@H](NC(=O)[C@H](N)c3ccc(O)cc3)C(=O)N2[C@H]1C(=O)O` [amoxicillin]: the “inhibitory effect on H. pylori” value in the experiment on H. pylori [1] was “different degrees of inhibition efficacy”. In addition, the MIC in the experiment on H. pylori [2] (H. pylori strain NO. 125-54) was found to be 0.5 µg/mL (≈ 1.37 µM); with H. pylori [2] (H. pylori strain NO. 125-56) it was 0.25 µg/mL (≈ 0.684 µM); with H. pylori [2] (H. pylori strain NO. 125-57) it was 0.25 µg/mL (≈ 0.684 µM); in the experiment with H. pylori [2] (H. pylori strain NO. 126-6), 0.016 µg/mL (≈ 0.0438 µM); with H. pylori [2] (H. pylori strain NO. 127-4) it was 0.0625 µg/mL (≈ 0.171 µM); in the experiment on H. pylori [2] (H. pylori strain NO. 127-9), 0.0625 µg/mL (≈ 0.171 µM). Also, in the experiment with H. pylori [2] (H. pylori strain NO. 127-10), the MIC came out at 0.125 µg/mL (≈ 0.342 µM).
